Test results reported in article PMC7893915, “Assessing cross-resistance within the pyrethroids in terms of their interactions with key cytochrome P450 enzymes and resistance in vector populations” (Parasites & Vectors, 2021).

Tests used:
Helicoverpa armigera = test system: Helicoverpa armigera; set-up: method as in PMID 17685437; conditions: pyrethroids with a polyfluorobenzyl group instead of the phenoxybenzyl group; ref [48]; cited from earlier work
[1] = test system: An. funestus strain, FUMOZ-R; set-up: method as in PMID 26930058; conditions: strain with upregulated P450 levels without any target-site mutations; ref [47]; cited from earlier work
Gambiae Complex = conditions: ID 100156; F0, larval collection, 5/2009-4/2010, Chano, Ethiopia; WHO Bioassay 1998; ref Massebo F et al. Parasites Vectors. 2013;6; cited from earlier work
Ae. aegypti = assay: WHO adult susceptibility test on field samples, Ae. aegypti; format: in vivo, Aedes aegypti; conditions: standard diagnostic doses
Excerpt: The analyses conducted using data from An. gambiae (s.l.) samples were repeated using data from the An. funestus subgroup, An. arabiensis, An. coluzzii, An. funestus and An. gambiae samples (Additional file 2). The same approach was also used for susceptibility test data from Aedes albopictus and Ae. aegypti to investigate whether the same relationships could be detected in these vectors of arboviruses, as detailed in Additional file 3.
Additional File 3: Cross-resistance to pyrethroids within wild populations of Aedes vectors […]
If structural diversity within the pyrethroids is also associated with divergence in resistance within the Aedes vectors of arboviruses, this would lend weight to the findings for malaria vectors presented in the main manusc ript. Like the Anopheles vectors, target-site mutations and metabolic resistance are thought to be the main resistance mechanisms in Aedes mosquitoes. At least ten mutations in the Aedes aegypti Vgsc gene have been identified and the most widespread mutation, […]
mutations and is also associated with DDT resistance. More recently, the V1016G mutation has been found in Ae. albopictus in Viet Nam and Italy, and both this allele and the F1534C and F1534S […]
expression of cytochrome P450s has also been implicated in pyrethroid resistance within Aedes mosquitoes and there is evidence that metabolic resistance can confer cross -resistance to multiple pyrethroids. For example, over-expression of CYP9J28 is associated with metabolic resistance to […]
target site- and P450-mediated resistance in Ae. aegypti strains found variation in resistance to seven pyrethroids and hypothesised that some patterns of resistance could be linked to structural differences, but also noted that general conclusions are challenging to make without a greater number of compounds with a single modification to compare. No studies of structure activity relationships using a wide range of pyrethroids and P450s from Aedes mosquitoes have been conducted to-date, but data on resistance in wild populations are available. A wider range of pyrethroids are more typically tested by studies of resistance in Aedes vectors, compared to Anopheles vectors, although these studies are also more varied in terms of diagnostic dose, bioass ay method and life cycle stage, making comparisons across studies difficult. Here we selected studies that used a common experimental design and investigated correlations in resistance to pairs of pyrethroids mirroring part of the work on Anopheles vectors presented in the main manuscript.
We identified all instances within a public insecticide resistance database where an Aedes field sample had been subdivided among tests for different pyrethroids. We then identified the most commonly used bioassay type across the new pyrethroid dataset, which was the WHO adult susceptibility test as described for malaria vectors, and the most commonly used diagnostic dose for […]
each compound (Table S2). […]
removed. Paired results were then extracted, and the mean values for the Pearson’s correlation coefficient were calculated for each pyrethroid pair using 1,000 bootstaps in SPSS Statistics v25.
Table S5. Diagnostic doses and data volumes for each pyrethroid.
Pyrethroid Most common dose Number of data points
The number of data points available for each pyrethroid from an Ae. aegypti sample that was used to test at least one other pyrethroid, using standard WHO susceptibility tests and standard diagnostic doses, is given.

Anopheles sinensis = test system: Anopheles sinensis; set-up: method as in PMID 24159535; conditions: resistance ratios using LC50 values from a susceptible strain; most susceptible to bifenthrin, cyfluthrin and etofenprox, in that order; ref [55]; cited from earlier work

Row | Compound | effect on cross-resistance, in words (Helicoverpa armigera) | effectiveness with or without piperonyl butoxide (PBO), in words [1] | mortality (Gambiae Complex) | Mean percent mortality (SE) (Ae. aegypti; Pair 2 cyfluthrin vs etofenprox, N 22 paired Ae. aegypti samples) | Mean percent mortality (SE) (Ae. aegypti; Pair 5 permethrin vs cyfluthrin, N 79 paired Ae. aegypti samples) | Mean percent mortality (SE) (Ae. aegypti; Pair 7 λ-cyhalothrin vs cyfluthrin, N 25 paired Ae. aegypti samples) | Mean percent mortality (SE) (Ae. aegypti; Pair 10 deltamethrin vs cyfluthrin, N 72 paired Ae. aegypti samples) | susceptibility of larvae, rank in words (Anopheles sinensis)
1 | CC1(C)[C@H](C=C(Cl)Cl)[C@H]1C(=O)OCc1c(F)c(F)cc(F)c1F [transfluthrin] | overcame most of this resistance | effective in the absence of the generic P450 inhibitor | – | – | – | – | – | –
2 | CC1(C)C(C=C(Cl)Cl)C1C(=O)OC(C#N)c1ccc(F)c(Oc2ccccc2)c1 (stereo not drawn) [cyfluthrin] | – | – | 50 | 87.78 (3.56) percent | 89.27 (1.61) percent | 85.01 (3.81) percent | 88.58 (1.73) percent | most susceptible
3 | Cc1c(F)c(F)c(COC(=O)[C@@H]2[C@H](/C=C(\Cl)C(F)(F)F)C2(C)C)c(F)c1F (racemic) [tefluthrin] | overcame most of this resistance | – | – | – | – | – | – | –
